Data on one compound can be found in patent US20260284016A1, “COMBINATIONS AND METHODS FOR ENHANCING CHECKPOINT INHIBITOR THERAPIES IN CANCER TREATMENT” (PURDUE RESEARCH FOUNDATION, priority 2004, published 2026).

Data set [1] is described as follows: Stability during incubation in culture media. The data set is classed as physicochemical. As to conditions: 37° C. in the culture media, 48 hours. As to the method:
Indeed, Compound 1B retained the original structure after 48 hours incubation.

Data set [2] relates to BM-induced mice. The data set is described as follows: Bleomycin-induced pulmonary fibrosis, markers in bronchoalveolar lavage cells and fluid. Format: in vivo, C57BL/6 mice. As to the method: Fresh water and folate-deficient diet were freely available.
After 2 hours, mice were sacrificed using CO2 asphyxiation and an incision in the skin from the abdomen to neck was immediately made to expose the lungs and trachea. A small cut in the upper trachea was then introduced for insertion of a blunted, 22-gauge needle, and a nylon string was tied around the trachea to seal the trachea around the needle. The trachea (containing the inserted needle), lungs and heart were then removed en masse by carefully cutting the connective tissue beneath the lungs, and the bronchus of left lung was clipped with a Dieffenbach vessel clip. The right lung was injected with PBS and aspirated 3 times using a 1 ml syringe, and the recovered lavage fluid was saved on ice.
Bronchoalveolar lavage fluid (BALF) was then analyzed to determine how the targeted TLR7 agonist works. BALF samples were centrifuged at 1500 rpm for 5 min at 4° C., and the supernatant was aliquoted and stored at −80° C., for cytokine/chemokine analyses. Cell pellets were resuspended and cultured in pre-warmed RPMI 1640 medium for 2 hours and then washed 3x with pre-warmed PBS prior to harvesting for qPCR assay. The right lung was then tied with a nylon string and used for subsequent analysis of hydroxyproline content. The left lung was inflated with 1 ml PBS using the inserted syringe and transferred to 10% formalin solution for subsequent histological analyses.
CCL18 and IL-1β were quantified in induced THP-1 cell supernatants using a human DuoSet ELISA Development System (R&D Systems Europe, Abingdon, UK: #DY394-05) and an IL-1 beta Human ELISA Kit (Thermo Fisher Scientific, Waltham, MA; #BMS224-2) as described by manufactures. BALF samples were analyzed for mouse IFN-γ using ELISA MAX™ Deluxe (Biolegend, San Diego, CA; #430804).

In data set [3] the test system is BM-induced mice. As to the method: Studies were also performed to determine if macrophages in pulmonary fibrotic lungs might be specifically targeted with folate-linked drugs in vivo. […] (The BM model is widely regarded to be helpful in terms of enabling mechanistic investigations relevant to fibrogenesis in an in vivo context.)
More specifically, eight-week-old C57BL6 male mice from Charles River (average weight 22 g to 25 g) were housed under pathogen-free conditions at room temperature (22° C.) under a 12 hours light-dark cycle. Mice were placed on a folate deficient chow (Envigo Teklad Global Rat Food Pellets) for 1 week prior to the BM or PBS instillation. Fresh water and folate-deficient diet were freely available. All animal procedures were approved by the Purdue Animal Care and Use Committee in accordance with National Institute of Health guidelines.
Thereafter, the mice were anesthetized with ketamine/xylazine and the necks of the mice were shaved using hair remover lotion and then sterilized with 70% alcohol. A small incision was made on the neck to visualize the trachea. Mice were positioned at a 75-degree angle and injected intratracheally with 100 μL sterile PBS or BM (Cayman Chemicals, Ann Arbor, MI; #13877) dissolved in PBS (0.75 mg/kg) using a 1 cc syringe with 26 G needle. Body weights were monitored every other day throughout the experiment.
Lobes of the right lung collected above were weighed, placed in a pressure-tight vial (Supelco Inc., Bellefonte, PA; #27003), and hydrolyzed with 6N HCl (10 ml/g, v/w) in a sand bath at 120° C., for 3.5 hours. The hydrolyzed solution was cooled at 4° C., for 15 min and transferred to a 1.5 ml Eppendorf tube prior to centrifugation at 12,000 rcf for 15 min at 4° C. Supernatant was carefully collected, aliquoted and used for hydroxyproline (HYP) analysis.
For the subsequent HYP analysis, 10 μl of sample was transferred into a 96-well plate and neutralized with 10 μl of 5.3 M sodium hydroxide solution. Isopropanol ([…]) was then added to each well followed by 20 μl of oxidation buffer and the mixture was incubated on a shaker at room temperature for 5 min. Analytical reagent (260 μl) was added, and the plate was incubated on a shaker at room temperature for 30 seconds and incubated immediately at 60° C., for 25 min. The absorbance was measured at 560 nm (A560) within 15 min. All reagents were prepared according to a previously reported protocol.
For histological analysis of the lung sections, fixed lungs (see above) were embedded in paraffin, sectioned and stained with hematoxylin-eosin (H&E), Masson's trichrome or F3 (anti-mouse FRβ antibody). Tissue sections were examined in a blinded manner by a licensed pathologist. More than 90×10^6 cells were quantified per section using Aperio-Image Scope (Leica Biosystems, Wetzlar, DE).
For this, BM-treated mice were intravenously injected every other day beginning on day 10 with either vehicle (3% DMSO in PBS) or Compound 1B (see FIG. 8A). […] In BM-induced experimental pulmonary fibrosis in mice, inflammation is known to persist for about 9-10 days after BM installation. Because, inflammation to fibrosis switch happens in this model approximately day 9 to day 14, and anti-inflammatory markers start appearing at about day 10, dosing began on day 10 (FIG. 8A).
Two doses were given every other day till day 21. The individual doses on a day are separated by 6 hours to prevent any “tolerance” to TLR agonists. Mice were then sacrificed on day 21 and subjected immediately to bronchoalveolar lavage followed by resection of the lungs for immunohistochemistry and quantitation of collagen and hydroxyproline.

Data set [4] has as its system M2-induced human monocyte-derived macrophages. The data set is described as follows: Reprogramming of M2-induced human monocyte-derived macrophages with FA-glucosamine competition. Format: cell-based. As to conditions: 100 nM, 2+46 hours. Here is the method: Arg1 (FIG. 19A), CD206 (FIG. 19B) and CD163 (FIG. 19C), and protein levels of secreted anti-inflammatory CCL18 (FIG. 19D) and proinflammatory cytokines, CXCL10 (FIG. 19E) and IL-6 (FIG. 19F) (n=3, technical replicates) were then determined. Changes in both sets of cytokines were inhibited by blockade of unoccupied folate receptors with excess FA-glucosamine (2+46 hours, competition).

Data set [5] has as its system M2-induced THP-1 macrophages. The data set is described as follows: Reprogramming of M2-polarized THP-1 macrophages, marker mRNA by qPCR. Format: cell-based, human. The conditions noted are these: 48 hours incubation, FIGS. 3A-3F, compared with nontargeted Compound 1A. (In qPCR the cycle at which signal appears reflects the starting amount.)
Setting [6] is: dosing every other day from day 10, BALF day 21.

Experimental for healthy mice: (FIGS. 20A-C) Measurement of plasma IL-6 (FIG. 20A), IFNα (FIG. 20B) and TNFα (FIG. 20C) (n=3). […] The effect of drug concentration on plasma levels of IL-6 (FIG. 20D), IFNα (FIG. 20E), and TNFα (FIG. 20F) was determined at 1.5 hours, 1 hour, or 1 hour after treatment, respectively (n=2) (FIG. 20G).
The effect of drug on plasma levels of IL-6 (FIG. 23C) and TNFα (FIG. 23D) was determined at 1 hour or 1.5 hours after treatment.

As to `CCCCc1nc2c(N)nc3ccccc3c2n1CC(C)(C)OC(=O)OCCSSCC(NC(=O)CCC(NC(=O)c1ccc(NCc2cnc3nc(N)[nH]c(=O)c3n2)cc1)C(=O)O)C(=O)O` (stereo not drawn) [Compound 1B], the stability during incubation entry in data set [1] is on record as “remained stable”. For the same compound, the “total number of BALF cells” value in the data set on BM-induced mice [2] (different doses of Compound 1B) is given as “decreased in a dose-dependent manner”. In the data set with BM-induced mice [2] (setting [6]), the “Arg1 (qPCR, lavage macrophages)” value was “suppressed”; the “CD86 transcripts (qPCR)” value is “elevated”; the “IFN-γ concentration (ELISA of lavage fluid)” value is reported as “elevated”; the IRAK-4 result was “upregulation”. In the data set with BM-induced mice [2] (setting [6]), the “MMP9 (qPCR, lavage macrophages)” value is “suppressed” and the “TIMP 3 (qPCR, lavage macrophages)” value was “suppressed”. For the same compound, the “order of efficacy on lung hydroxyproline content” value with BM-induced mice [3] (0, 1, 3, or 10 nmol/mouse, day 21) is recorded as 10 nmol/mouse>3 nmol/mouse>1 nmol/mouse>0 nmol/mouse. The “lung histology with rising dose” value in the data set with BM-induced mice [3] (0, 1, 3, or 10 nmoles) is “lung histology improved”. Further, the “weight loss across doses” value with BM-induced mice [3] (0, 1, 3, or 10 nmoles every other day from day 10) was “no difference in weight loss”. For the same compound, in the data set on BM-induced mice [3] (healthy and fibrotic lungs), the “response in lung sections (DAPI, anti-F4/80, anti-CD206 staining)” value was “robust anti-fibrotic and proinflammatory response”. For the same compound, the “collagen stain, Masson's trichrome” value with BM-induced mice [3] (tail vein injection, treatment from day 10) is “strongly suppressed”. In addition, in the data set on BM-induced mice [3] (treatment from day 10), the “lung architecture, H&E staining” value was “resembles that of healthy mice”. The “downregulation of biomarkers with excess FA-glucosamine (competitor)” value in data set [4] was “blocked”. The “systemic cytokine release (plasma IL-6, IFNα, TNFα)” value in the data set on healthy mice (10 nmol tail vein) is “does not”. In addition, the “inflammatory cytokine release, dose comparison” value in the data set with healthy mice (plasma at 1 or 1.5 hours, varied dose) is listed as “stimulates less inflammatory cytokine release than half the dose of Compound 1A”. The “M2 to M1 marker changes, magnitude of impact” value in data set [5] is listed as “somewhat reduced”.
